Experimental data: patent US9216973B2, “Insecticidal compounds” (Syngenta Participations AG, priority 2008, dated 2015)
Like-named read-outs stand apart in the source and are kept apart here.

Key:
[1] = tested on: Heliothis virescens (Tobacco budworm); test: Heliothis virescens egg test on artificial diet; format: in vivo; settings: 96 h, read-out: control of Heliothis virescens
Procedure: (§1) This Example illustrates the insecticidal and acaricidal properties of compounds of formula (I). The tests were performed as follows:
(§2) Cotton leaf discs were placed on agar in a 24-well microtiter plate and sprayed with test solutions at an application rate of 200 ppm. After drying, the leaf discs were infested with 5 L1 larvae. The samples were checked for mortality, feeding behavior, and growth regulation 3 days after treatment (DAT). The following compound gave at least 80% control of Spodoptera littoralis: A1, A2, A5, A6, A7, A8, A10, A11, A12, A13, A14, A15, A16, A17, A18, A19, A21, A22, A23, A24, A25, A30, A31, A32, A33, A34, A35, A39, A40, A41 A42, A43, A44, A45, A46, A47, A48, A49, A50, A51, A53, A54, A55, A59, A60, A61, A62. Heliothis virescens (Tobacco budworm): Eggs (0-24 h old) were placed in 24-well microtiter plate on artificial diet and treated with test solutions at an application rate of 200 ppm (concentration in well 18 ppm) by pipetting. After an incubation period of 4 days, samples were checked for egg mortality, larval mortality, and growth regulation. The following compound gave at least 80% control of Heliothis virescens: A1, A2, A3, A4, A5, A6, A7, A8, A10, A11, A12, A13, A14, A15, A16, A18, A19, A21, A22, A24, A25, A30, A31, A32, A33, A34, A35, A37, A38, A39, A40, A42, A43, A44, A45, A46, A47, A48, A49, A50, A51, A55, AA57, A58, A59, A60, A61, A62. Plutella xylostella (Diamond back moth): 24-well microtiter plate (MTP) with artificial diet was treated with test solutions at an application rate of 200 ppm (concentration in well 18 ppm) by pipetting. After drying, the MTP's were infested with L2 larvae (7-12 per well). After an incubation period of 6 days, samples were checked for larval mortality and growth regulation. The following compound gave at least 80% control of Plutella xylostella: A1, A2, A5, A6, A7, A8, A9, A10, A11, A12, A13, A14, A15, A16, A17, A18, A19, A20, A21, A22, A24, A25, A30, A31, A32, A33, A34, A35, A37, A38, A39, A40, A42, A43, A44, A45, A46, A47, A48, A49, A50, A51, A52, A53, A54, A55, A57, A58, A59, A60, A61, A62, B3. Diabrotica balteata (Corn root worm): A 24-well microtiter plate (MTP) with artificial diet was treated with test solutions at an application rate of 200 ppm (concentration in well 18 ppm) by pipetting. After drying, the MTP's were infested with L2 larvae (6-10 per well). After an incubation period of 5 days, samples were checked for larval mortality and growth regulation. The following compound gave at least 80% control of Diabrotica balteata: A1, A2, A5, A6, A7, A10, A11, A12, A13, A14, A15, A16, A17, A18, A19, A21, A22, A24, A25, A30, A31, A32, A33, A34, A35, A38, A39, A40, A42, A43, A44, A45, A46, A47, A48, A49, A50, A59, A60, A61, A62. Thrips tabaci (Onion thrips): Sunflower leaf discs were placed on agar in a 24-well microtiter plate and sprayed with test solutions at an application rate of 200 ppm. After drying, the leaf discs were infested with an […] population of mixed ages. After an incubation period of 7 days, samples were checked for mortality. The following compounds gave at least 80% control of Thrips tabaci: A1, A2, A5, A6, A7, A8, A10, A12, A13, A14, A15, A16, A17, A18, A19, A21, A24, A25, A30, A31, A32, A33, A34, A35, A39, A42, A43, A44, A45, A46, A47, A48, A49, A50, A51, A53, A54, A57, A58, A59, A60, A61, A62. Tetranychus urticae (Two-spotted spider mite): Bean leaf discs on agar in 24-well microtiter plates were sprayed with test solutions at an application rate of 200 ppm. After drying, the leaf discs are infested with mite populations of mixed ages. 8 days later, discs are checked for egg mortality, larval mortality, and adult mortality. The following compound gave at least 80% control of Tetranychus urticae: A1, A2, A4, A5, A6, A7, A8, A10, A11, A12, A13, A14, A15, A16, A17, A18, A19, A20, A21, A22, A30, A31, A32, A33, A34, A35, A39, A40, A41, A42, A43, A44, A45, A46, A47, A48, A49, A50, A51, A53, A54, A55, A57, A59, A60, A61, A62.

[2] = tested on: Tetranychus urticae (Two-spotted spider mite); test: Tetranychus urticae bean leaf disc spray test; format: in vivo; settings: foliar, 192 h, read-out: control of Tetranychus urticae
Procedure: as §1, §2

[3] = tested on: Plutella xylostella (Diamond back moth); test: Plutella xylostella larvae test on artificial diet; format: in vivo; settings: 144 h, 200 ppm (concentration in well 18 ppm), artificial diet, L2 larvae, larval mortality and growth regulation after 6 days
Procedure: as §1, §2

[4] = tested on: Diabrotica balteata (Corn root worm); test: Diabrotica balteata larvae test on artificial diet; format: in vivo; settings: 120 h, 200 ppm (concentration in well 18 ppm), artificial diet, L2 larvae, larval mortality and growth regulation after 5 days
Procedure: as §1, §2

[5] = tested on: Spodoptera littoralis (Egyptian cotton leafworm); test: Spodoptera littoralis cotton leaf disc spray test; format: in vivo; settings: foliar, 72 h, 200 ppm spray on cotton leaf discs, L1 larvae, mortality, feeding behavior, growth regulation 3 days after treatment
Procedure: as §1
Spodoptera littoralis (Egyptian cotton leafworm):
as §2, with “The following compound gave at least 80% control of Tetranychus urticae: A1, A2, A4, A5, A6, A7, A8, A10, A11, A12, A13, A14, A15, A16, A17, A18, A19, A20, A21, A22, A30, A31, A32, A33, A34, A35, A39, A40, A41, A42, A43, A44, A45, A46, A47, A48, A49, A50, A51, A53, A54, A55, A57, A59, A60, A61, A62.” left out

[6] = tested on: Thrips tabaci (Onion thrips); test: Thrips tabaci sunflower leaf disc spray test; format: in vivo; settings: foliar, 168 h, 200 ppm spray on sunflower leaf discs, population of mixed ages, mortality after 7 days
Procedure: as §1, §2

[7] = 200 ppm (concentration in well 18 ppm), eggs 0-24 h old on artificial diet, egg mortality, larval mortality, growth regulation after 4 days
[8] = 200 ppm spray on bean leaf discs, mite populations of mixed ages, egg, larval and adult mortality 8 days later

Question: With `Cc1c(C(=O)NC2CSC2)cnn1C1=NOC(c2cc(Cl)cc(Cl)c2)(C(F)(F)F)C1` (centres unmarked) [B2] as the molecule, how does the melting point read?
Answer: 77 °C

Question: For `Cc1cc(N2CC2(c2cc(Cl)cc(Cl)c2)C(F)(F)F)ccc1C(=O)NC1CSC1` (centres unmarked) [A4], which pest or weed control at 200 ppm [1] is on record?
Answer: ≥ 80%

Question: What about the pest or weed control at 200 ppm [2] of the same molecule?
Answer: ≥ 80%

Question: For `O=C(NC1CSC1)c1cccc2c(C3=NOC(c4cc(Cl)cc(Cl)c4)(C(F)(F)F)C3)cccc12` (centres unmarked) [A38], which pest or weed control at 200 ppm [1, 7] is on record?
Answer: ≥ 80%

Question: What about the pest or weed control at 200 ppm [3] of the same molecule?
Answer: ≥ 80%

Question: What about the pest or weed control at 200 ppm [4] of the same molecule?
Answer: ≥ 80%

Question: With `Cc1cc(C2=NOC(c3cc(Cl)cc(Cl)c3)(C(F)(F)F)C2O)ccc1C(=O)NC1(C)CSC1` (centres unmarked) [A52] as the molecule, how does the pest or weed control at 200 ppm [3] read?
Answer: ≥ 80%

Question: For `Cc1cc(N2CC(c3cc(Cl)cc(Cl)c3)(C(F)(F)F)OC2=O)ccc1C(=O)NC1(C)CSC1` (centres unmarked) [A9], which pest or weed control at 200 ppm [3] is on record?
Answer: ≥ 80%

Question: What does the source list for `Cc1cc(C2CC(c3cc(Cl)cc(Cl)c3)(C(F)(F)F)ON2C)ccc1C(=O)NC1(C)CSC1` (centres unmarked) [A20]?
Answer: pest or weed control at 200 ppm [3]: ≥ 80%; pest or weed control at 200 ppm [2, 8]: ≥ 80%

Question: With `O=C(NC1C[S+]([O-])C1)c1cccc2c(C3=NOC(c4cc(Cl)cc(Cl)c4)(C(F)(F)F)C3)cccc12` (centres unmarked) [A37] as the molecule, how does the pest or weed control at 200 ppm [1, 7] read?
Answer: ≥ 80%

Question: And the pest or weed control at 200 ppm [3]?
Answer: ≥ 80%

Question: For `Cc1cc(C2=NOC(c3cc(Cl)cc(Cl)c3)(C(F)(F)F)C2S(C)(=O)=O)ccc1C(=O)NC1CSC1` (centres unmarked) [A41], which pest or weed control at 200 ppm [5] is on record?
Answer: ≥ 80%

Question: Which results are given for `C/C=C1\C(c2ccc(C(=O)NC3CSC3)c(C)c2)=NOC1(c1cc(Cl)cc(Cl)c1)C(F)(F)F` (centres unmarked) [A30]?
Answer: pest or weed control at 200 ppm [1, 7]: ≥ 80%; pest or weed control at 200 ppm [3]: ≥ 80%; pest or weed control at 200 ppm [4]: ≥ 80%

Question: Which melting point does the source give for `Cc1nn(C2=NOC(c3cc(Cl)cc(Cl)c3)(C(F)(F)F)C2)cc1C(=O)NC1CSC1` (centres unmarked) [B1] here?
Answer: 177 to 180 °C

Question: For `Cc1cc(N2CC2(c2cc(Cl)cc(Cl)c2)C(F)(F)F)ccc1C(=O)NC1(C)CSC1` (centres unmarked) [A3], which pest or weed control at 200 ppm [1] is on record?
Answer: ≥ 80%

Question: Which pest or weed control at 200 ppm [3] does the source give for `O=C(NC1CSC1)c1ccc(C2=NOC(c3cc(Cl)cc(Cl)c3)(C(F)(F)F)C2)c2nsnc12` (centres unmarked) [A25] here?
Answer: ≥ 80%

Question: With `O=C(NC1C[S+]([O-])C1)c1ccc(C2=NOC(c3cc(Cl)cc(Cl)c3)(C(F)(F)F)C2)c2nsnc12` (centres unmarked) [A24] as the molecule, how does the pest or weed control at 200 ppm [3] read?
Answer: ≥ 80%

Question: With `O=C(NC1CSC1)c1cnn(C2=NOC(c3cc(Cl)cc(Cl)c3)(C(F)(F)F)C2)c1` (centres unmarked) [B4] as the molecule, how does the melting point read?
Answer: 85 to 87 °C

Question: With `O=C(NC1CSC1)c1ccn(C2=NOC(c3cc(Cl)cc(Cl)c3)(C(F)(F)F)C2)n1` (centres unmarked) [B3] as the molecule, how does the pest or weed control at 200 ppm [3] read?
Answer: ≥ 80%

Question: What does the source list for `Cc1cc(C2=NOC(c3cc(Cl)cc(Cl)c3)(C(F)(F)F)/C2=N/O)ccc1C(=O)NC1C[S+]([O-])C1` (centres unmarked) [A57]?
Answer: pest or weed control at 200 ppm [1, 7]: ≥ 80%; pest or weed control at 200 ppm [3]: ≥ 80%; pest or weed control at 200 ppm [6]: ≥ 80%; pest or weed control at 200 ppm [2, 8]: ≥ 80%
